What was measured:
[1] = excess molar enthalpy (molar enthalpy of mixing); xn = mol fraction of the nth substance listed; conditions: 303.15 K, 101.3 kPa, Liquid
[2] = molar heat capacity at constant pressure; xn = mol fraction of the nth substance listed; conditions: 101.3 kPa, Liquid, Small sample (50 mg) DSC
[3] = xn = mol fraction of the nth substance listed; conditions: 101.3 kPa, Liquid, Vibrating tube method

CCCCn1cc[n+](C)c1.COS(=O)(=O)[O-] [1-butyl-3-methylimidazolium methyl sulfate] + O
[1]
Conditions | excess molar enthalpy [kJ/mol]
x1 = 0.0506 | -0.283
x1 = 0.1003 | -0.404
x1 = 0.1461 | -0.482
x1 = 0.2018 | -0.522
x1 = 0.299 | -0.537
x1 = 0.4021 | -0.491
x1 = 0.5447 | -0.413
x1 = 0.6795 | -0.316
x1 = 0.8434 | -0.173

Conditions | mass density, [3] [kg/m3] | molar heat capacity at constant pressure, [2] [J/K/mol]
293.15 K, x1 = 0.0213 | 1041.7 | 84.8
293.15 K, x1 = 0.0489 | 1081 | 95.3
293.15 K, x1 = 0.0996 | 1123.8 | 112
293.15 K, x1 = 0.1975 | 1162.3 | 143.8
293.15 K, x1 = 0.2938 | 1180 | 175.2
293.15 K, x1 = 0.3948 | 1190.5 | 207.8
293.15 K, x1 = 0.4809 | 1196.3 | 235.7
293.15 K, x1 = 0.5724 | 1200.7 | 265.9
293.15 K, x1 = 0.6552 | 1203.6 | 293.4
293.15 K, x1 = 0.8002 | 1207.3 | 343.5
293.15 K, x1 = 0.8199 | 1207.7 | –
293.15 K, x1 = 0.9554 | 1210 | 397.9
298.15 K, x1 = 0.0213 | 1039.7 | 84.8
298.15 K, x1 = 0.0489 | 1078.3 | 95.6
298.15 K, x1 = 0.0996 | 1120.5 | 112.6
298.15 K, x1 = 0.1975 | 1158.8 | 144.9
298.15 K, x1 = 0.2938 | 1176.5 | 176.5
298.15 K, x1 = 0.3948 | 1187 | 209.3
298.15 K, x1 = 0.4809 | 1192.9 | 237.3
298.15 K, x1 = 0.5724 | 1197.3 | 267.7
298.15 K, x1 = 0.6552 | 1200.3 | 295.3
298.15 K, x1 = 0.8002 | 1204 | 345.5
298.15 K, x1 = 0.8199 | 1204.3 | –
298.15 K, x1 = 0.9554 | 1206.7 | 400.1
303.15 K, x1 = 0.0213 | 1037.5 | 84.9
303.15 K, x1 = 0.0489 | 1075.4 | 96
303.15 K, x1 = 0.0996 | 1117.1 | 113.3
303.15 K, x1 = 0.1975 | 1155.2 | 146.1
303.15 K, x1 = 0.2938 | 1173 | 177.8
303.15 K, x1 = 0.3948 | 1183.6 | 210.8
303.15 K, x1 = 0.4809 | 1189.5 | 239
303.15 K, x1 = 0.5724 | 1193.9 | 269.5
303.15 K, x1 = 0.6552 | 1196.9 | 297.3
303.15 K, x1 = 0.8002 | 1200.7 | 347.6
303.15 K, x1 = 0.8199 | 1201 | –
303.15 K, x1 = 0.9554 | 1203.4 | 402.3
308.15 K, x1 = 0.0213 | 1035.2 | 84.9
308.15 K, x1 = 0.0489 | 1072.4 | 96.2
308.15 K, x1 = 0.0996 | 1113.6 | 113.9
308.15 K, x1 = 0.1975 | 1151.7 | 147.1
308.15 K, x1 = 0.2938 | 1169.5 | 179
308.15 K, x1 = 0.3948 | 1180.2 | 212.2
308.15 K, x1 = 0.4809 | 1186.1 | 240.5
308.15 K, x1 = 0.5724 | 1190.6 | 271.2
308.15 K, x1 = 0.6552 | 1193.6 | 299.2
308.15 K, x1 = 0.8002 | 1197.4 | 349.7
308.15 K, x1 = 0.8199 | 1197.7 | –
308.15 K, x1 = 0.9554 | 1200.1 | 404.5
313.15 K, x1 = 0.0213 | 1032.7 | 84.9
313.15 K, x1 = 0.0489 | 1069.3 | 96.5
313.15 K, x1 = 0.0996 | 1110.1 | 114.5
313.15 K, x1 = 0.1975 | 1148 | 148.1
313.15 K, x1 = 0.2938 | 1166 | 180.3
313.15 K, x1 = 0.3948 | 1176.7 | 213.6
313.15 K, x1 = 0.4809 | 1182.7 | 242.1
313.15 K, x1 = 0.5724 | 1187.2 | 272.9
313.15 K, x1 = 0.6552 | 1190.3 | 301.2
313.15 K, x1 = 0.8002 | 1194.1 | 351.7
313.15 K, x1 = 0.8199 | 1194.4 | –
313.15 K, x1 = 0.9554 | 1196.8 | 406.7
318.15 K, x1 = 0.0213 | 1030.1 | 85.1
318.15 K, x1 = 0.0489 | 1066.2 | 96.8
318.15 K, x1 = 0.0996 | 1106.6 | 115.2
318.15 K, x1 = 0.1975 | 1144.4 | 149.1
318.15 K, x1 = 0.2938 | 1162.5 | 181.6
318.15 K, x1 = 0.3948 | 1173.3 | 215
318.15 K, x1 = 0.4809 | 1179.3 | 243.7
318.15 K, x1 = 0.5724 | 1183.9 | 274.6
318.15 K, x1 = 0.6552 | 1186.9 | 303.1
318.15 K, x1 = 0.8002 | 1190.8 | 353.8
318.15 K, x1 = 0.8199 | 1191.1 | –
318.15 K, x1 = 0.9554 | 1193.6 | 408.9

CCOS(=O)(=O)[O-].CCn1cc[n+](C)c1 [1-ethyl-3-methylimidazolium ethyl sulfate] + O
[1]
Conditions | excess molar enthalpy [kJ/mol]
x1 = 0.0504 | -0.482
x1 = 0.0997 | -0.767
x1 = 0.1468 | -0.915
x1 = 0.2004 | -0.986
x1 = 0.2921 | -0.968
x1 = 0.3935 | -0.853
x1 = 0.4806 | -0.794
x1 = 0.5727 | -0.655
x1 = 0.6687 | -0.52
x1 = 0.8212 | -0.285

Conditions | mass density, [3] [kg/m3] | molar heat capacity at constant pressure, [2] [J/K/mol]
293.15 K, x1 = 0.0477 | 1084.8 | 92.6
293.15 K, x1 = 0.1033 | 1138.7 | 109.8
293.15 K, x1 = 0.2048 | 1184.3 | 140.4
293.15 K, x1 = 0.2943 | 1203.3 | 167.1
293.15 K, x1 = 0.3847 | 1214.7 | 194.3
293.15 K, x1 = 0.4774 | 1222.5 | 222.7
293.15 K, x1 = 0.5797 | 1228.5 | 254.6
293.15 K, x1 = 0.6632 | 1232 | 281.3
293.15 K, x1 = 0.8092 | 1236.6 | 328.9
293.15 K, x1 = 0.907 | 1238.9 | 360.9
298.15 K, x1 = 0.0477 | 1082.3 | 92.9
298.15 K, x1 = 0.1033 | 1135.4 | 110.5
298.15 K, x1 = 0.2048 | 1180.8 | 141.4
298.15 K, x1 = 0.2943 | 1199.8 | 168.3
298.15 K, x1 = 0.3847 | 1211.3 | 195.7
298.15 K, x1 = 0.4774 | 1219.1 | 224.2
298.15 K, x1 = 0.5797 | 1225 | 256.2
298.15 K, x1 = 0.6632 | 1228.6 | 283.1
298.15 K, x1 = 0.8092 | 1233.2 | 330.9
298.15 K, x1 = 0.907 | 1235.5 | 363.1
303.15 K, x1 = 0.0477 | 1079.6 | 93.3
303.15 K, x1 = 0.1033 | 1132.1 | 111.2
303.15 K, x1 = 0.2048 | 1177.2 | 142.6
303.15 K, x1 = 0.2943 | 1196.3 | 169.7
303.15 K, x1 = 0.3847 | 1207.8 | 197.1
303.15 K, x1 = 0.4774 | 1215.6 | 225.8
303.15 K, x1 = 0.5797 | 1221.6 | 258
303.15 K, x1 = 0.6632 | 1225.2 | 285
303.15 K, x1 = 0.8092 | 1229.8 | 333
303.15 K, x1 = 0.907 | 1232.1 | 365.3
308.15 K, x1 = 0.0477 | 1076.9 | 93.6
308.15 K, x1 = 0.1033 | 1128.7 | 111.9
308.15 K, x1 = 0.2048 | 1173.6 | 143.7
308.15 K, x1 = 0.2943 | 1192.7 | 171
308.15 K, x1 = 0.3847 | 1204.3 | 198.6
308.15 K, x1 = 0.4774 | 1212.2 | 227.5
308.15 K, x1 = 0.5797 | 1218.2 | 259.9
308.15 K, x1 = 0.6632 | 1221.8 | 287.1
308.15 K, x1 = 0.8092 | 1226.4 | 335.3
308.15 K, x1 = 0.907 | 1228.7 | 367.7
313.15 K, x1 = 0.0477 | 1073.9 | 93.9
313.15 K, x1 = 0.1033 | 1125.3 | 112.7
313.15 K, x1 = 0.2048 | 1170 | 144.9
313.15 K, x1 = 0.2943 | 1189.2 | 172.4
313.15 K, x1 = 0.3847 | 1200.8 | 200.3
313.15 K, x1 = 0.4774 | 1208.7 | 229.3
313.15 K, x1 = 0.5797 | 1214.8 | 261.8
313.15 K, x1 = 0.6632 | 1218.4 | 289.2
313.15 K, x1 = 0.8092 | 1223 | 337.7
313.15 K, x1 = 0.907 | 1225.3 | 370.3
318.15 K, x1 = 0.0477 | 1071 | 94.4
318.15 K, x1 = 0.1033 | 1121.8 | 113.6
318.15 K, x1 = 0.2048 | 1166.4 | 146.2
318.15 K, x1 = 0.2943 | 1185.6 | 173.9
318.15 K, x1 = 0.3847 | 1197.3 | 202
318.15 K, x1 = 0.4774 | 1205.3 | 231.2
318.15 K, x1 = 0.5797 | 1211.3 | 263.9
318.15 K, x1 = 0.6632 | 1215 | 291.6
318.15 K, x1 = 0.8092 | 1219.6 | 340.3
318.15 K, x1 = 0.907 | 1221.9 | 373

Reference: the NIST ThermoML archive (doi:10.1016/j.jct.2008.10.002)
